We go through three molecules from patent US20080274104A1, “Targeting a Secreted Pro-Apoptotic Factor for Cancer Therapeutics” (priority 2005, published 2008).

“And” between values parts separate entries of the source, which are not always exact repeats. Equal values may be shown once.

Data set [1] relates to C3H/HeJ mice. The data set can be described thus: C3H/HeJ mouse leukemia model injected with BCR-ABL+ 32D cells. The class given is in vivo. To be noted: individual mouse. As for the experimental part:
Therefore, the present inventors wanted to determine whether the affects of anti-sense 24p3 expression in leukemia cells would produce the same effects as in the NOD/scid mouse. In these experiments, 10e6 BCR-ABL+32D cells were injected iv into 8-week old C3H/HeJ mice. Leukemia cells expressed either GFP or anti-sense 24p3 RNA or siRNA for 24p3. The GFP expressing leukemia cells induced a vigorous leukemia involving marrow, spleen, blood and liver (Table 2). Expression of anti-sense 24p3 in leukemia cells reduced the level of invasion in marrow and the spleen but not the liver. Importantly, these mice developed a vigorous ascites tumor growth of GFP+ cells, which was not observed in the GFP vector expressing leukemia cells. […]

Data set [2] relates to NGAL expression in SKBr3 cell line. As to the kind of experiment: NGAL expression in breast cancer cell line. In kind it is cell-based, human.
From the text: Several breast cancer cell lines were examined for NGAL expression.
For data set [3], the system named is suitable targets cells. As to the kind of experiment: Apoptosis induction with purified 24p3/NGAL. The class given is cell-based. To be noted: GST-bacterial method protein. From the text: These findings indicate that the Bcr-Abl oncoprotein in addition to its oncogenic effects also induces secretion of an apoptotic factor (24p3/NGAL) that causes suppression of normal hematopoiesis. […] Detailed structural analysis has shown that NGAL is an iron binding protein, and that the ligand for NGAL is a catecholate-type siderophore (Goetz et al., 2002). Whether the siderophore binding function is related to 24p3/NGAL's ability to induce apoptosis is not known. In specific embodiments, the apoptotic activity of 24p3/NGAL may require either post-translational modification in eukaryotic cells or formation of a complex with one or more factors. […] Local suppression of normal hematopoiesis by 24p3/NGAL secreted by leukemia cells would allow the leukemic clone to more readily compete, survive, infiltrate and proliferate in normal marrow and the spleen tissue environment. […] Thus, as little as one pluripotent stem cell that has acquired BCR-ABL expression by forming the Philadelphia chromosome could survive and compete in the normally active marrow environment because of its ability to secrete a cell death factor (and possibly other factors; Eaves et al., 1998; Olofsson and Olsson, 1980; Olofsson and Olsson, 1980; Skold et al., 1999) to which it is resistant. The ensuing cell death in the surrounding marrow cells would facilitate expansion of the leukemic clone in the normal marrow. […]

Consider “siRNA #4: small hairpin RNA against 24p3 driven by H1 promoter, SEQ ID NO:1 (DNA GGCAGCTTTACGATGTACATTCAAGAGATGTACATCGTAAAGCTGCCTTTTTTCCAAT; expressed or natural sequence)”, for which, in data set [1], the Ascites result was “Yes” and the Solid tumor result is on record as “Yes”. In data set [1] (listed as 32Dp210 siRNA), the “GFP positive cells, Ascites” value is 90% (2×) and 80% and 100% (2×); the “GFP positive cells, BM” value was <1% and 5% (3×) and No; the “GFP positive cells, Liver” value was 20% and 50% and 40% and 10% and 25%; the “GFP positive cells, PB” value was 50% and <1% and 20%. In data set [1] (listed as 32Dp210 siRNA), the “GFP positive cells, Spleen” value is 5% and 25% and <1% and No and 20%; the “GFP positive cells, Tumor” value was 40% and 70%; the Spleen wt is 160 mg and 110 mg and 40 mg and 90 mg and 130 mg.
With `Cc1ccc(S(=O)(=O)/C=C/C#N)cc1` [BAY11-7082], the NGAL expression entry in data set [2] is given as “strongly inhibited”.

B1: purified 24p3/NGAL: purified 24p3/NGAL lipocalin protein made by GST-bacterial method (protein, UniProt P11672 21-200, looked up)
Neutrophil …: QDSTQNLIPAPSLLTVPLQPDFRSDQFRGRWYVVGLAGNAVQKKTEGSFTMYSTIYELQENNSYNVTSILVRDQDQGCRYWIRTFVPSSRAGQFTLGNMHRYPQVQSYNVQVATTDYNQFAMVFFRKTSENKQYFKITLYGRTKELSPELKERFTRFAKSLGLKDDNIIFSVPTDQCIDN
B1: in data set [3], the apoptosis induction entry is “unable to induce apoptosis”.
